Measured values as given in US20260115185A1, “QUINOLINE DERIVATIVES WHICH ACT AS KAPPA-OPIOID RECEPTOR ANTAGONISTS” (The Scripps Research Institute, priority 2023, published 2026).

Experiments:
[1] = target: T1, kappa opioid receptor (KOR) (Homo sapiens, UniProt P41145); assay: OPRKappa 1 Tango B-Arrestin Assay, antagonist mode (Tango OPRK1-bla U2OS cells, U50488 EC80 challenge); assay type: cell-based; details: for Selectivity (MOR/KOR): Kappa selectivity, MOR IC50 / KOR IC50; for IC50: antagonist mode, Tango OPRK1-bla U2OS cells, 6 nM U50488 challenge
T1 construct: host or cells: U2OS (Tango OPRK1-bla U2OS)
T1 sequence (P41145 whole entry): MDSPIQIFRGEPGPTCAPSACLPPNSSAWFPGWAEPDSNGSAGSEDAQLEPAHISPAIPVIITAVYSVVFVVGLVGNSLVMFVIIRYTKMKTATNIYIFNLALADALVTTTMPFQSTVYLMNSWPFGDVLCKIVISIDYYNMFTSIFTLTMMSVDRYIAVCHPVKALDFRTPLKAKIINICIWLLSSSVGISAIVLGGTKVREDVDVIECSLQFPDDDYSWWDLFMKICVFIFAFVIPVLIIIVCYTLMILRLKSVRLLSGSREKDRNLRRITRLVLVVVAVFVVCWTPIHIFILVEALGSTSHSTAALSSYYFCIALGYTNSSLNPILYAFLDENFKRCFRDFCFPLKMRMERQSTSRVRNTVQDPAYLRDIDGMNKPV
Procedure, shortened: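 Tango OPRK1-bla U2OS cells, β-arrestin recruitment read as β-lactamase FRET (CCF4-AM, 460/590 nm emission). Compounds, 10-point 1:3 series from nominal 10 µM in quadruplicate, preincubated 30 min at 37 °C, then challenged with U50488 at 6 nM final (EC80) for 4 h; percent inhibition from median ratio.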

mu opioid receptor (MOR) = target: T2, mu opioid receptor (MOR) (Homo sapiens, UniProt P35372); assay: OPRMu1 Discover X β-arrestin Assay, antagonist mode (U2OS cells, DAMGO EC80 challenge); assay type: cell-based
T2 construct: host or cells: U2OS (Discover X OPRMu1-U2OS, PathHunter)
T2 sequence (P35372 whole entry): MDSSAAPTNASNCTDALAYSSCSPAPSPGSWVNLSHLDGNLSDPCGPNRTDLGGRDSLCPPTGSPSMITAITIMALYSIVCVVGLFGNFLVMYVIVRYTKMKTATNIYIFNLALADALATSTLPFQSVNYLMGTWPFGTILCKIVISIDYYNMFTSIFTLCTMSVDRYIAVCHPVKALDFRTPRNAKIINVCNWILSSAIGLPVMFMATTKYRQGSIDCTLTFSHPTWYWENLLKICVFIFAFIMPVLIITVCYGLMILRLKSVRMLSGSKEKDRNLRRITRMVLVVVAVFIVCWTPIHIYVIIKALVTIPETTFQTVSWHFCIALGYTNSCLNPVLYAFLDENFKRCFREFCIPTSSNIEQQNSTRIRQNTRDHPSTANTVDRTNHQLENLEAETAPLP
Procedure, shortened: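 PathHunter U2OS cells with β-gal fragment-complementation readout for β-arrestin recruitment to OPRMu1. Cells were preincubated with compound (10-point, 1:3 series from nominal 10 micromolar) for 30 min at 37 °C, then challenged with 303 nM DAMGO (EC80) for 3 h. Luminescence gave percent inhibition.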

## CCc1cc(F)c2nc(N3CCN(C(=O)CN(C)C)C[C@H]3C)c(-c3nc(C)no3)c(C)c2c1 [Compound 44]
[1]
  Selectivity (MOR/KOR): +++ (between 100- to 1000-fold selective)
  IC50: 10 to 100 nM
Mu opioid receptor (MOR)
  IC50: > 1000 nM

## CCc1cc(-c2cnn(CCO)c2)c2nc(N3CCNC[C@H]3C)c(-c3nc(C)no3)c(C)c2c1 [Compound 106]
[1]
  Selectivity (MOR/KOR): ++ (between 10- and 100-fold selectivity)
  IC50: ≥ 100 nM
Mu opioid receptor (MOR)
  IC50: > 1000 nM

## CCc1cc(F)c2nc(N3CC[C@@H](N[C@@H]4CCOC4)[C@H](F)C3)c(-c3ccn(C)n3)c(C)c2c1 [Compound 196, (3R,4R)-1-(6-ethyl-8-fluoro-4-methyl-3-(1-methyl-1H-pyrazol-3-yl)quinolin-2-yl)-3-fluoro-N—((R)-tetrahydrofuran-3-yl)piperidin-4-amine]
[1]
  Selectivity (MOR/KOR): +++ (between 100- to 1000-fold selective)
  IC50: 1 to 10 nM
Mu opioid receptor (MOR)
  IC50: > 1000 nM

## CCc1cc(-c2ccnn2C)c2nc(N3CCC(N[C@H]4COC[C@H]4F)CC3)c(-c3ccn(C)n3)c(C)c2c1 [Compound 89]
[1]
  Selectivity (MOR/KOR): ++ (between 10- and 100-fold selectivity)
  IC50: 1 to 10 nM
Mu opioid receptor (MOR)
  IC50: > 1000 nM

## CCc1cc(F)c2nc(N3CCN(C(=O)[C@H]4CCCCN4C)C[C@H]3C)c(-c3nc(C)no3)c(C)c2c1 [Compound 189]
[1]
  Selectivity (MOR/KOR): ++++ (more than 1000-fold selectivity over MOR)
  IC50: 1 to 10 nM
Mu opioid receptor (MOR)
  IC50: > 1000 nM

## CCc1cc(F)c2nc(N3CC[C@@H](N[C@@H]4CCOC4)C[C@@H]3C)c(-c3cc(C)no3)c(C)c2c1 [Compound 138]
[1]
  Selectivity (MOR/KOR): +++ (between 100- to 1000-fold selective)
  IC50: 10 to 100 nM
Mu opioid receptor (MOR)
  IC50: > 1000 nM

## COc1cc(F)c2nc(N3CCN(CC4CCOCC4)C[C@H]3C)c(-c3nc(C)no3)c(C)c2c1 [Compound 37, (R)-5-(8-fluoro-6-methoxy-4-methyl-2-(2-methyl-4-((tetrahydro-2H-pyran-4-yl)methyl)piperazin-1-yl)quinolin-3-yl)-3-methyl-1,2,4-oxadiazole]
[1]
  Selectivity (MOR/KOR): ++ (between 10- and 100-fold selectivity)
  IC50: ≥ 100 nM
Mu opioid receptor (MOR)
  IC50: > 1000 nM

## CCc1cc(F)c2nc(N3CCN(CC4CCOCC4)C[C@H]3C)c(-c3ccn(C)n3)c(C)c2c1 [Compound 2, (R)-6-ethyl-8-fluoro-4-methyl-3-(1-methyl-1H-pyrazol-3-yl)-2-(2-methyl-4-((tetrahydro-2H-pyran-4-yl)methyl)piperazin-1-yl)quinoline]
[1]
  Selectivity (MOR/KOR): +++ (between 100- to 1000-fold selective)
  IC50: 1 to 10 nM
Mu opioid receptor (MOR)
  IC50: > 1000 nM

## CCc1cc(F)c2nc(N3CCC(N[C@@H]4CCCC(F)(F)C4)CC3)c(-c3ccn(C)n3)c(C)c2c1 [Compound 74]
[1]
  Selectivity (MOR/KOR): ++ (between 10- and 100-fold selectivity)
  IC50: 1 to 10 nM
Mu opioid receptor (MOR)
  IC50: 100 to 1000 nM

## CCc1cc(F)c2nc(N3CCN(C(=O)[C@@H](C)N4CC[C@@H](O)C4)C[C@H]3C)c(-c3nc(C)no3)c(C)c2c1 [Compound 146]
[1]
  Selectivity (MOR/KOR): +++ (between 100- to 1000-fold selective)
  IC50: 10 to 100 nM
Mu opioid receptor (MOR)
  IC50: > 1000 nM

## CCc1cc(F)c2nc(N3CCN(C(=O)[C@H](C)N(CC)CC)C[C@H]3C)c(-c3ccn(C)n3)c(C)c2c1 [Compound 174]
[1]
  Selectivity (MOR/KOR): +++ (between 100- to 1000-fold selective)
  IC50: 10 to 100 nM
Mu opioid receptor (MOR)
  IC50: > 1000 nM

## CCc1cc(-c2ccnn2C)c2nc(N3CCC(N[C@@H]4CCOC[C@H]4F)CC3)c(-c3ccn(C)n3)c(C)c2c1 [Compound 22, 1-(6-ethyl-4-methyl-3-(1-methyl-1H-pyrazol-3-yl)-8-(1-methyl-1H-pyrazol-5-yl)quinolin-2-yl)-N-((3S,4R)-3-fluorotetrahydro-2H-pyran-4-yl)piperidin-4-amine]
[1]
  Selectivity (MOR/KOR): ++ (between 10- and 100-fold selectivity)
  IC50: 1 to 10 nM
Mu opioid receptor (MOR)
  IC50: 100 to 1000 nM

## CCc1cc(-c2ccn(C)n2)c2nc(N3CCC(N[C@@H]4CCOC4)CC3)c(-c3ccn(C)n3)c(C)c2c1 [Compound 100]
[1]
  Selectivity (MOR/KOR): ++++ (more than 1000-fold selectivity over MOR)
  IC50: < 1 nM
Mu opioid receptor (MOR)
  IC50: > 1000 nM

## CCc1cc(F)c2nc(N3CCN(C(=O)[C@H](C)N4CCCC4)C[C@H]3C)c(-c3nc(C)no3)c(C)c2c1 [Compound 191]
[1]
  Selectivity (MOR/KOR): ++++ (more than 1000-fold selectivity over MOR)
  IC50: 1 to 10 nM
Mu opioid receptor (MOR)
  IC50: > 1000 nM

## CCc1cc(F)c2nc(N3CC[C@H](N[C@@H]4CCOC4)[C@H](C)C3)c(-c3ccn(C)n3)c(C)c2c1 [Compound 107]
[1]
  Selectivity (MOR/KOR): +++ (between 100- to 1000-fold selective)
  IC50: 10 to 100 nM
Mu opioid receptor (MOR)
  IC50: > 1000 nM

## CCc1cc(-c2ccnn2C)c2nc(N3CCC(N[C@@H]4COC[C@@H]4F)CC3)c(-c3ccn(C)n3)c(C)c2c1 [Compound 88]
[1]
  Selectivity (MOR/KOR): ++ (between 10- and 100-fold selectivity)
  IC50: 1 to 10 nM
Mu opioid receptor (MOR)
  IC50: 100 to 1000 nM

## CCc1cc(F)c2nc(N3CC[C@@H]4[C@@H](CCN4C[C@@H]4CCCOC4)C3)c(-c3ccn(C)n3)c(C)c2c1 [Compound 133]
[1]
  Selectivity (MOR/KOR): +++ (between 100- to 1000-fold selective)
  IC50: 10 to 100 nM
Mu opioid receptor (MOR)
  IC50: > 1000 nM

## CCc1cc(F)c2nc(N3CCN(CC4(F)CCOCC4)C[C@H]3C)c(-c3nc(C)no3)c(C)c2c1 [Compound 207, (R)-5-(6-ethyl-8-fluoro-2-(4-((4-fluorotetrahydro-2H-pyran-4-yl)methyl)-2-methylpiperazin-1-yl)-4-methylquinolin-3-yl)-3-methyl-1,2,4-oxadiazole]
[1]
  Selectivity (MOR/KOR): ++++ (more than 1000-fold selectivity over MOR)
  IC50: 1 to 10 nM
Mu opioid receptor (MOR)
  IC50: > 1000 nM

## CCc1cc(F)c2nc(N3CCN(C4CC5(COC5)C4)C[C@H]3C)c(-c3nc(C)no3)c(C)c2c1 [Compound 41]
[1]
  Selectivity (MOR/KOR): +++ (between 100- to 1000-fold selective)
  IC50: 10 to 100 nM
Mu opioid receptor (MOR)
  IC50: > 1000 nM

## CCc1cc(F)c2nc(N3CCN(C(=O)[C@@H]4COCCN4C)C[C@H]3C)c(-c3nc(C)no3)c(C)c2c1 [Compound 185]
[1]
  Selectivity (MOR/KOR): +++ (between 100- to 1000-fold selective)
  IC50: 10 to 100 nM
Mu opioid receptor (MOR)
  IC50: > 1000 nM

## CCc1cc(F)c2nc(N3CCC(N[C@@H]4COC[C@@H]4F)CC3)c(-c3ccn(C)n3)c(C)c2c1 [Compound 71, 1-(6-ethyl-8-fluoro-4-methyl-3-(1-methyl-1H-pyrazol-3-yl)quinolin-2-yl)-N-((3R,4R)-4-fluorotetrahydrofuran-3-yl)piperidin-4-amine]
[1]
  Selectivity (MOR/KOR): +++ (between 100- to 1000-fold selective)
  IC50: 1 to 10 nM
Mu opioid receptor (MOR)
  IC50: > 1000 nM

## CCc1cc(F)c2nc(N3CCC(NCC4(F)CC4)CC3)c(-c3cc(C)n(C)n3)c(C)c2c1 [Compound 19, 1-(3-(1,5-dimethyl-1H-pyrazol-3-yl)-6-ethyl-8-fluoro-4-methylquinolin-2-yl)-N-((1-fluorocyclopropyl)methyl)piperidin-4-amine]
[1]
  Selectivity (MOR/KOR): +++ (between 100- to 1000-fold selective)
  IC50: 1 to 10 nM
Mu opioid receptor (MOR)
  IC50: 100 to 1000 nM

## CCc1cc(F)c2nc(N3CC[C@@H](N[C@@H]4CCCOC4)[C@@H](C)C3)c(-c3ccn(C)n3)c(C)c2c1 [Compound 113]
[1]
  Selectivity (MOR/KOR): ++++ (more than 1000-fold selectivity over MOR)
  IC50: < 1 nM
Mu opioid receptor (MOR)
  IC50: > 1000 nM

## CCc1cc(F)c2nc(N3CCN(C(=O)CN(C)C)C[C@H]3C)c(-c3ccn(C)n3)c(C)c2c1 [Compound 171]
[1]
  Selectivity (MOR/KOR): +++ (between 100- to 1000-fold selective)
  IC50: 10 to 100 nM
Mu opioid receptor (MOR)
  IC50: > 1000 nM

## CCc1cc(F)c2nc(N3CCN(C(=O)[C@@H]4C[C@@H](O)CN4C)C[C@H]3C)c(-c3ccn(C)n3)c(C)c2c1 [Compound 177]
[1]
  Selectivity (MOR/KOR): +++ (between 100- to 1000-fold selective)
  IC50: ≥ 100 nM
Mu opioid receptor (MOR)
  IC50: > 1000 nM

## CCc1cc(F)c2nc(N3CC[C@@H](N[C@@H]4CCOC4)[C@H](C)C3)c(-c3ccn(C)n3)c(C)c2c1 [Compound 110]
[1]
  Selectivity (MOR/KOR): +++ (between 100- to 1000-fold selective)
  IC50: 1 to 10 nM
Mu opioid receptor (MOR)
  IC50: > 1000 nM

## CCc1cc(F)c2nc(N3CC[C@H](NC4CCOCC4)[C@H](F)C3)c(-c3nn(C)cc3F)c(C)c2c1F [Compound 70]
[1]
  Selectivity (MOR/KOR): +++ (between 100- to 1000-fold selective)
  IC50: 1 to 10 nM
Mu opioid receptor (MOR)
  IC50: > 1000 nM

## CCc1cc(-c2cc(C)nn2C)c2nc(N3CCC(N[C@@H]4CCOC4)CC3)c(-c3ccn(C)n3)c(C)c2c1 [Compound 95]
[1]
  Selectivity (MOR/KOR): +++ (between 100- to 1000-fold selective)
  IC50: < 1 nM
Mu opioid receptor (MOR)
  IC50: 10 to 100 nM

## CCc1cc(F)c2nc(N3CCC(N[C@H]4CCOC4)CC3)c(-c3cc(C(F)(F)F)n(C)n3)c(C)c2c1 [Compound 84]
[1]
  Selectivity (MOR/KOR): +++ (between 100- to 1000-fold selective)
  IC50: 10 to 100 nM
Mu opioid receptor (MOR)
  IC50: > 1000 nM

## CCc1cc(C#N)c2nc(N3CCC(NC4CC(F)(F)C4)CC3)c(-c3ccn(C)n3)c(C)c2c1 [Compound 79]
[1]
  Selectivity (MOR/KOR): +++ (between 100- to 1000-fold selective)
  IC50: 1 to 10 nM
Mu opioid receptor (MOR)
  IC50: > 1000 nM

## CCc1cc(-c2cc[nH]n2)c2nc(N3CCNC[C@H]3C)c(-c3nc(C)no3)c(C)c2c1 [Compound 105]
[1]
  Selectivity (MOR/KOR): ++ (between 10- and 100-fold selectivity)
  IC50: 10 to 100 nM
Mu opioid receptor (MOR)
  IC50: > 1000 nM

## CCc1cc(F)c2nc(N3CCNC[C@H]3C)c(-c3ccn(C)n3)c(C)c2c1 [Compound 13, (R)-6-ethyl-8-fluoro-4-methyl-3-(1-methyl-1H-pyrazol-3-yl)-2-(2-methylpiperazin-1-yl)quinoline]
[1]
  Selectivity (MOR/KOR): ++ (between 10- and 100-fold selectivity)
  IC50: ≥ 100 nM
Mu opioid receptor (MOR)
  IC50: > 1000 nM

## CCc1cc(F)c2nc(N3CC[C@H](N[C@@H]4CCCOC4)C[C@H]3C)c(-c3ccn(C)n3)c(C)c2c1 [Compound 122]
[1]
  Selectivity (MOR/KOR): +++ (between 100- to 1000-fold selective)
  IC50: < 1 nM
Mu opioid receptor (MOR)
  IC50: 10 to 100 nM
